Assay results from patent publication US9708314B2, “Heterocyclic amide compound” (NISSAN CHEMICAL INDUSTRIES, LTD., priority 2013, dated 2017).
Values joined by “and” are separate entries in the source; they are usually repeats but may differ in a detail not shown here. Equal values may be shown once.

Experiments:
Format in all cases: in vivo
[1] = system: transplanted Oryza sativa; test: Test Example 1: effect on crop, application before weed generation in submerged conditions; settings: Seventeenth Table; for a: transplanted Oryza sativa (effect on crop grade): Application herbicide amount 320 g/ha
Summary of the method: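 Alluvial soil in Wagner pots flooded to 4 cm water depth; weed seeds sown and 2.5 leaf stage rice seedlings transplanted. Emulsion diluted in water applied to water surface on sowing day at stated g/ha. Greenhouse 25° C. to 30° C.; effects scored 0–5 by herbicidal ratio after three weeks.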

[2] = system: directly sowed Oryza sativa; test: Test Example 3: effect on crop by application to foliage (Wagner pot, water depth 0.1-0.5 cm); settings: Nineteenth Table; application to foliage; application herbicide amount 320 g/ha
Summary of the method: (§1)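 Rice-field weeds and directly sown rice were grown 14 days in flooded alluvial soil (water depth 0.1–0.5 cm) at 25–30 °C in a greenhouse. An emulsion formulation diluted to the stated g/ha rate was sprayed onto stems and leaves. Effects were scored on a 0–5 scale (herbicidal ratio bands) three weeks after treatment.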

[3] = system: Monochoria vaginalis; test: Test Example 2: herbicidal activity, application during weed generation in submerged conditions; settings: Eighteenth Table; application herbicide amount 320 g/ha
Summary of the method: (§2)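 Alluvial soil in Wagner pots flooded to 4 cm water depth; seeds sown mixed, grown in greenhouse at 25–30 °C. At one- to two-leaf stage, emulsion diluted with water to the set rate (g/ha) was applied to the water surface. Effect scored 0–5 by herbicidal ratio three weeks later.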

[4] = system: Echinochloa oryzacola Vasing.; test: as above; settings: Eighteenth Table; application herbicide amount 320 g/ha
Summary of the method: as §2

[5] = system: Scirpus juncoides; test: as above; settings: Eighteenth Table; application herbicide amount 320 g/ha
Summary of the method: as §2

[6] = system: Echinochloa crus-galli var. crus-galli; test: Test Example 3: herbicidal effect by application to foliage (Wagner pot, water depth 0.1-0.5 cm); settings: Nineteenth Table; application to foliage; application herbicide amount 320 g/ha
Summary of the method: as §1

[7] = system: Cyperus difformis; test: as above; settings: Nineteenth Table; application to foliage; application herbicide amount 320 g/ha
Summary of the method: as §1

[8] = system: Leptochloa chinensis; test: as above; settings: Nineteenth Table; application to foliage; application herbicide amount 320 g/ha
Summary of the method: as §1

Structure (SMILES)	a: transplanted Oryza sativa (effect on crop grade) [1]	b (effect on crop grade) [2]	C (Monochoria vaginalis) herbicidal ratio grade [3]	A (Echinochloa oryzicola Vasing.) herbicidal ratio grade [4]	B (Scirpus juncoides) herbicidal ratio grade [5]	H (herbicidal effect grade) [6]	E (herbicidal effect grade) [7]	D (herbicidal effect grade) [8]	a (transplanted Oryza sativa) effect on crop grade ([1]; application herbicide amount 320 g/ha)
CSCCc1nnc2c(C(=O)Nc3nnnn3C)ccc(C(F)(F)F)n12 [2-057]	4 (Herbicidal ratio of 70% or more and less than 90%)	5 (Herbicidal ratio of 90% or more (almost completely withered))	4 (Herbicidal ratio of 70% or more and less than 90%)	4 (Herbicidal ratio of 70% or more and less than 90%)	4 (Herbicidal ratio of 70% or more and less than 90%)	5 (Herbicidal ratio of 90% or more (almost completely withered))	5 (Herbicidal ratio of 90% or more (almost completely withered))	5 (Herbicidal ratio of 90% or more (almost completely withered))	–
Cn1nnnc1NC(=O)c1ccc(C(F)(F)F)n2c(-c3ccc(Cl)nc3)nnc12 [2-060]	5 (Herbicidal ratio of 90% or more (almost completely withered))	5 (Herbicidal ratio of 90% or more (almost completely withered))	5 (Herbicidal ratio of 90% or more (almost completely withered))	5 (Herbicidal ratio of 90% or more (almost completely withered))	4 (Herbicidal ratio of 70% or more and less than 90%) and 3 (Herbicidal ratio of 40% or more and less than 70%)	5 (Herbicidal ratio of 90% or more (almost completely withered))	5 (Herbicidal ratio of 90% or more (almost completely withered))	5 (Herbicidal ratio of 90% or more (almost completely withered))	–
Cn1nnnc1NC(=O)c1ccc(C(F)(F)F)n2c(NCC(F)(F)F)nnc12 [2-081]	3 (Herbicidal ratio of 40% or more and less than 70%)	4 (Herbicidal ratio of 70% or more and less than 90%)	2 (Herbicidal ratio of 20% or more and less than 40%)	2 (Herbicidal ratio of 20% or more and less than 40%)	2 (Herbicidal ratio of 20% or more and less than 40%)	5 (Herbicidal ratio of 90% or more (almost completely withered))	5 (Herbicidal ratio of 90% or more (almost completely withered))	5 (Herbicidal ratio of 90% or more (almost completely withered))	–
Cn1nnnc1NC(=O)c1ccc(C(F)(F)F)n2c(SCc3ccccc3)nnc12 [2-076]	2 (Herbicidal ratio of 20% or more and less than 40%)	1 (Herbicidal ratio of 5% or more and less than 20%)	2 (Herbicidal ratio of 20% or more and less than 40%)	2 (Herbicidal ratio of 20% or more and less than 40%)	3 (Herbicidal ratio of 40% or more and less than 70%)	5 (Herbicidal ratio of 90% or more (almost completely withered))	4 (Herbicidal ratio of 70% or more and less than 90%)	4 (Herbicidal ratio of 70% or more and less than 90%)	–
Cn1nnnc1NC(=O)c1ccc(C(F)(F)F)n2c([S+](C)[O-])nnc12 (stereo not shown) [2-067]	5 (Herbicidal ratio of 90% or more (almost completely withered))	5 (Herbicidal ratio of 90% or more (almost completely withered))	5 (Herbicidal ratio of 90% or more (almost completely withered))	5 (Herbicidal ratio of 90% or more (almost completely withered))	4 (Herbicidal ratio of 70% or more and less than 90%)	5 (Herbicidal ratio of 90% or more (almost completely withered))	5 (Herbicidal ratio of 90% or more (almost completely withered))	5 (Herbicidal ratio of 90% or more (almost completely withered))	–
COc1ccc(CSc2nnc3c(C(=O)Nc4nnnn4C)ccc(C(F)(F)F)n23)cc1 [2-077]	1 (Herbicidal ratio of 5% or more and less than 20%)	0 (Herbicidal ratio of 5% or less (almost no effect))	2 (Herbicidal ratio of 20% or more and less than 40%)	2 (Herbicidal ratio of 20% or more and less than 40%)	2 (Herbicidal ratio of 20% or more and less than 40%)	2 (Herbicidal ratio of 20% or more and less than 40%)	3 (Herbicidal ratio of 40% or more and less than 70%)	4 (Herbicidal ratio of 70% or more and less than 90%)	–
CCOC(=O)Cc1nnc2c(C(=O)Nc3nnnn3C)ccc(C(F)(F)F)n12 [2-040]	4 (Herbicidal ratio of 70% or more and less than 90%)	4 (Herbicidal ratio of 70% or more and less than 90%)	4 (Herbicidal ratio of 70% or more and less than 90%)	4 (Herbicidal ratio of 70% or more and less than 90%)	3 (Herbicidal ratio of 40% or more and less than 70%)	4 (Herbicidal ratio of 70% or more and less than 90%)	5 (Herbicidal ratio of 90% or more (almost completely withered))	–	–
CC(C)c1nnc2c(C(=S)Nc3nnnn3C)ccc(C(F)(F)F)n12 [2-039, 3-Isopropyl-N-(1-methyl-1H-tetrazol-5-yl)-5-(trifluoromethyl)-[1,2,4]triazolo[4,3-a]pyridine-8-carbothioamide]	4 (Herbicidal ratio of 70% or more and less than 90%)	4 (Herbicidal ratio of 70% or more and less than 90%)	5 (Herbicidal ratio of 90% or more (almost completely withered))	5 (Herbicidal ratio of 90% or more (almost completely withered))	5 (Herbicidal ratio of 90% or more (almost completely withered))	5 (Herbicidal ratio of 90% or more (almost completely withered))	5 (Herbicidal ratio of 90% or more (almost completely withered))	–	–
COCCSc1nnc2c(C(=O)Nc3nnnn3C)ccc(C(F)(F)F)n12 [2-101]	–	4 (Herbicidal ratio of 70% or more and less than 90%)	5 (Herbicidal ratio of 90% or more (almost completely withered))	4 (Herbicidal ratio of 70% or more and less than 90%)	4 (Herbicidal ratio of 70% or more and less than 90%)	5 (Herbicidal ratio of 90% or more (almost completely withered))	–	5 (Herbicidal ratio of 90% or more (almost completely withered))	3 (Herbicidal ratio of 40% or more and less than 70%)
C=CCN(C)c1nnc2c(C(=O)Nc3nnco3)ccc(C(F)(F)F)n12 [1-172]	1 (Herbicidal ratio of 5% or more and less than 20%)	3 (Herbicidal ratio of 40% or more and less than 70%)	3 (Herbicidal ratio of 40% or more and less than 70%)	3 (Herbicidal ratio of 40% or more and less than 70%)	4 (Herbicidal ratio of 70% or more and less than 90%)	5 (Herbicidal ratio of 90% or more (almost completely withered))	–	5 (Herbicidal ratio of 90% or more (almost completely withered))	–
